Patent US7473790B2 (Pfizer Inc., priority 2003, dated 2009)

What follows are compounds tested against T1, HCV polymerase (Hepatitis C virus genotype 1b, UniProt P26663) (assay: HCV polymerase primer/template-directed transcription assay (32P-GTP incorporation, filter binding)). Settings: recombinant HCV polymerase; 30 minutes at 30° C.; concentration giving 50% inhibition of polymerase-directed transcription; read-out: IC50.
T1 construct: 2.5 pmoles (0.15 μg) HCV polymerase protein in a final volume of 75 μL
T1 sequence (P26663 2420-3010): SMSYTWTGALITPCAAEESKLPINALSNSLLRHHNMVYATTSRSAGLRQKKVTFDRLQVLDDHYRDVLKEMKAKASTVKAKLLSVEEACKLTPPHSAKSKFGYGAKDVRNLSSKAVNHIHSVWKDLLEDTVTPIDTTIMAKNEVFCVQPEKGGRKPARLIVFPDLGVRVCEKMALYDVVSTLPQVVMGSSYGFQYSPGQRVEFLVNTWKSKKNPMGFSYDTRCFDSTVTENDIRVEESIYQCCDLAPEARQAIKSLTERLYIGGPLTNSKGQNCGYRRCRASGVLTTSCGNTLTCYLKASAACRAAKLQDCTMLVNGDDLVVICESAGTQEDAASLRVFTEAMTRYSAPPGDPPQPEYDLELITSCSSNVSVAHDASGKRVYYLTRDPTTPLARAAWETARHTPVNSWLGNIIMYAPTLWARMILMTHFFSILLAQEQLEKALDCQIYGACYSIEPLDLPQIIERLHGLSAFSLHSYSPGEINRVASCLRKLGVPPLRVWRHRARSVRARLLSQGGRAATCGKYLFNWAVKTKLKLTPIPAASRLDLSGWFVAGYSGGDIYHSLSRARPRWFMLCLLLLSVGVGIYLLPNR
Type: biochemical
In short: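 Recombinant genotype 1b polymerase (30 nM) extended biotin-dG12 primer on poly(rC)300 template with 1 μM GTP plus α-32P-GTP, pH 7.2, 10 mM MgCl2, 30 min at 30° C, 1% DMSO final. Products captured on DE filters and counted. IC50 fitted from triplicate cpm, with a tight-binding correction applied below 200 nM.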

| Compound | IC50 |
| --- | --- |
| CCn1nnnc1SC1=C(O)CC(CCc2ccc(OC)c(Cl)c2)(C2CCCC2)OC1=O (stereo not drawn) [C(39), 6-[2-(3-chloro-4-methoxyphenyl)ethyl]-6-cyclopentyl-3-[(1-ethyl-1H-tetrazol-5-yl)thio]-4-hydroxy-5,6-dihydro-2H-pyran-2-one] | 220 nM |
| COc1ccc(CCC2(C3CCCC3)CC(O)=C(Sc3nc4cc(Cl)ccc4n3C(C)C)C(=O)O2)cc1Cl (stereo not drawn) [C(40), 3-[(5-chloro-1-isopropyl-1H-benzimidazol-2-yl)thio]-6-[2-(3-chloro-4-methoxyphenyl)ethyl]-6-cyclopentyl-4-hydroxy-5,6-dihydro-2H-pyran-2-one] | 25 nM |
| COc1ccc(CCC2(C3CCCC3)CC(O)=C(Sc3nc4ccccc4n3C)C(=O)O2)cc1Cl (stereo not drawn) [C(41), 6-[2-(3-chloro-4-methoxyphenyl)ethyl]-6-cyclopentyl-4-hydroxy-3-[(1-methyl-1H-benzimidazol-2-yl)thio]-5,6-dihydro-2H-pyran-2-one] | 170 nM |
| COc1ccc(CCC2(C3CCCC3)CC(O)=C(Sc3nnc(-c4ccco4)n3C)C(=O)O2)cc1Cl (stereo not drawn) [C(42), 6-[2-(3-chloro-4-methoxyphenyl)ethyl]-6-cyclopentyl-3-{[5-(2-furyl)-4-methyl-4H-1,2,4-triazol-3-yl]thio}-4-hydroxy-5,6-dihydro-2H-pyran-2-one] | 13 nM |
| COc1ccc(CCC2(C3CCCC3)CC(O)=C(Sc3nc4ncccc4[nH]3)C(=O)O2)cc1Cl (stereo not drawn) [C(43), 6-[2-(3-chloro-4-methoxyphenyl)ethyl]-6-cyclopentyl-4-hydroxy-3-(1H-imidazo[4,5-b]pyridin-2-ylthio)-5,6-dihydro-2H-pyran-2-one] | 35 nM |
| COc1ccc(CCC2(C3CCCC3)CC(O)=C(Sc3nc4ccccc4n3C(C)C)C(=O)O2)cc1Cl (stereo not drawn) [C(44), 6-[2-(3-chloro-4-methoxyphenyl)ethyl]-6-cyclopentyl-4-hydroxy-3-[(1-isopropyl-1H-benzimidazol-2-yl)thio]-5,6-dihydro-2H-pyran-2-one] | 180 nM |
| COc1ccc(CCC2(C3CCCC3)CC(O)=C(Sc3nc4ccccc4s3)C(=O)O2)cc1Cl (stereo not drawn) [C(45), 3-(1,3-benzothiazol-2-ylthio)-6-[2-(3-chloro-4-methoxyphenyl)ethyl]-6-cyclopentyl-4-hydroxy-5,6-dihydro-2H-pyran-2-one] | 3200 nM |
| COc1ccc(CCC2(C3CCCC3)CC(O)=C(Sc3nc4cnccc4[nH]3)C(=O)O2)cc1Cl (stereo not drawn) [C(46), 6-[2-(3-chloro-4-methoxyphenyl)ethyl]-6-cyclopentyl-4-hydroxy-3-(1H-imidazo[4,5-c]pyridin-2-ylthio)-5,6-dihydro-2H-pyran-2-one] | 37 nM |
| COc1ccc(CCC2(C3CCCC3)CC(O)=C(Sc3nc4cccnc4s3)C(=O)O2)cc1Cl (stereo not drawn) [C(47), 6-[2-(3-chloro-4-methoxyphenyl)ethyl]-6-cyclopentyl-4-hydroxy-3-([1,3]thiazolo[5,4-b]pyridin-2-ylthio)-5,6-dihydro-2H-pyran-2-one] | 240 nM |
| COc1ccc(CCC2(C3CCCC3)CC(O)=C(Sc3nc4ccccc4n3-c3ccccc3)C(=O)O2)cc1Cl (stereo not drawn) [C(48), 6-[2-(3-chloro-4-methoxyphenyl)ethyl]-6-cyclopentyl-4-hydroxy-3-[(1-phenyl-1H-benzimidazol-2-yl)thio]-5,6-dihydro-2H-pyran-2-one] | 140 nM |
| COc1ccc(CCC2(C3CCCC3)CC(O)=C(Sc3nc4cc(Cl)ccc4[nH]3)C(=O)O2)cc1Cl (stereo not drawn) [C(49), 3-[(5-chloro-1H-benzimidazol-2-yl)thio]-6-[2-(3-chloro-4-methoxyphenyl)ethyl]-6-cyclopentyl-4-hydroxy-5,6-dihydro-2H-pyran-2-one] | 80 nM |
| COc1ccc(CCC2(C3CCCC3)CC(O)=C(Sc3nnc(-c4ccncc4)[nH]3)C(=O)O2)cc1Cl (stereo not drawn) [C(50), 6-[2-(3-chloro-4-methoxyphenyl)ethyl]-6-cyclopentyl-4-hydroxy-3-[(5-pyridin-4-yl-4H-1,2,4-triazol-3-yl)thio]-5,6-dihydro-2H-pyran-2-one] | 10 nM |
| COc1ccc(CCC2(C3CCCC3)CC(O)=C(Sc3nnc(-c4ccncc4)o3)C(=O)O2)cc1Cl (stereo not drawn) [C(51), 6-[2-(3-chloro-4-methoxyphenyl)ethyl]-6-cyclopentyl-4-hydroxy-3-[(5-pyridin-4-yl-1,3,4-oxadiazol-2-yl)thio]-5,6-dihydro-2H-pyran-2-one] | 256 nM |
| COc1ccc(CCC2(C3CCCC3)CC(O)=C(Sc3nc4cc(F)ccc4[nH]3)C(=O)O2)cc1Cl (stereo not drawn) [C(52), 6-[2-(3-chloro-4-methoxyphenyl)ethyl]-6-cyclopentyl-3-[(5-fluoro-1H-benzimidazol-2-yl)thio]-4-hydroxy-5,6-dihydro-2H-pyran-2-one] | 140 nM |
| COc1ccc(CCC2(C3CCCC3)CC(O)=C(Sc3nc4cc(C)ccc4[nH]3)C(=O)O2)cc1Cl (stereo not drawn) [C(53), 6-[2-(3-chloro-4-methoxyphenyl)ethyl]-6-cyclopentyl-4-hydroxy-3-[(5-methyl-1H-benzimidazol-2-yl)thio]-5,6-dihydro-2H-pyran-2-one] | 67 nM |
| COc1ccc(CCC2(C3CCCC3)CC(O)=C(Sc3nc4c(C)cccc4[nH]3)C(=O)O2)cc1Cl (stereo not drawn) [C(54), 6-[2-(3-chloro-4-methoxyphenyl)ethyl]-6-cyclopentyl-4-hydroxy-3-[(4-methyl-1H-benzimidazol-2-yl)thio]-5,6-dihydro-2H-pyran-2-one] | 220 nM |
| COc1ccc(CCC2(C3CCCC3)CC(O)=C(Sc3nc4cc(C#N)ccc4[nH]3)C(=O)O2)cc1Cl (stereo not drawn) [C(55), 2-({6-[2-(3-chloro-4-methoxyphenyl)ethyl]-6-cyclopentyl-4-hydroxy-2-oxo-5,6-dihydro-2H-pyran-3-yl}thio)-1H-benzimidazole-5-carbonitrile] | 30 nM |
| COc1ccc(CCC2(C3CCCC3)CC(O)=C(Sc3ncccc3C#N)C(=O)O2)cc1Cl (stereo not drawn) [C(56), 2-({6-[2-(3-chloro-4-methoxyphenyl)ethyl]-6-cyclopentyl-4-hydroxy-2-oxo-5,6-dihydro-2H-pyran-3-yl}thio)nicotinonitrile] | 1300 nM |
| COc1ccc(CCC2(C3CCCC3)CC(O)=C(Sc3nc4cc(Cl)ccc4n3C)C(=O)O2)cc1Cl (stereo not drawn) [C(57), 6-[2-(3-chloro-4-methoxyphenyl)ethyl]-3-[(5-chloro-1-methyl-1H-benzimidazol-2-yl)thio]-6-cyclopentyl-4-hydroxy-5,6-dihydro-2H-pyran-2-one] | 2 nM |
| COc1ccc(CCC2(C3CCCC3)CC(O)=C(Sc3nc4c(O)cccc4[nH]3)C(=O)O2)cc1Cl (stereo not drawn) [C(58), 6-[2-(3-chloro-4-methoxyphenyl)ethyl]-6-cyclopentyl-4-hydroxy-3-[(4-hydroxy-1H-benzimidazol-2-yl)thio]-5,6-dihydro-2H-pyran-2-one] | 140 nM |
| CCOc1ccc2[nH]c(SC3=C(O)CC(CCc4ccc(OC)c(Cl)c4)(C4CCCC4)OC3=O)nc2c1 (stereo not drawn) [C(59), 6-[2-(3-chloro-4-methoxyphenyl)ethyl]-6-cyclopentyl-3-[(5-ethoxy-1H-benzimidazol-2-yl)thio]-4-hydroxy-5,6-dihydro-2H-pyran-2-one] | 200 nM |
| COc1ccc(CCC2(C3CCCC3)CC(O)=C(Sc3nc4cc(Cl)c(Cl)cc4n3C)C(=O)O2)cc1Cl (stereo not drawn) [C(60), 6-[2-(3-chloro-4-methoxyphenyl)ethyl]-6-cyclopentyl-3-[(5,6-dichloro-1-methyl-1H-benzimidazol-2-yl)thio]-4-hydroxy-5,6-dihydro-2H-pyran-2-one] | 15 nM |
| COc1ccc(CCC2(C3CCCC3)CC(O)=C(Sc3nc4cc(Cl)c(F)cc4[nH]3)C(=O)O2)cc1Cl (stereo not drawn) [C(61), 3-[(5-chloro-6-fluoro-1H-benzimidazol-2-yl)thio]-6-[2-(3-chloro-4-methoxyphenyl)ethyl]-6-cyclopentyl-4-hydroxy-5,6-dihydro-2H-pyran-2-one] | 140 nM |
| COc1ccc(CCC2(C3CCCC3)CC(O)=C(Sc3nc4cc(C(F)(F)F)cc(Cl)c4[nH]3)C(=O)O2)cc1Cl (stereo not drawn) [C(62), 6-[2-(3-chloro-4-methoxyphenyl)ethyl]-3-{[7-chloro-5-(trifluoromethyl)-1H-benzimidazol-2-yl]thio}-6-cyclopentyl-4-hydroxy-5,6-dihydro-2H-pyran-2-one] | 500 nM |
| COc1cc(OC)c(CCC2(C3CCCC3)CC(O)=C(Sc3nc4cc(Cl)ccc4n3C)C(=O)O2)cc1Cl (stereo not drawn) [C(63), 6-[2-(5-chloro-2,4-dimethoxyphenyl)ethyl]-3-[(5-chloro-1-methyl-1H-benzimidazol-2-yl)thio]-6-cyclopentyl-4-hydroxy-5,6-dihydro-2H-pyran-2-one] | 8 nM |
| COc1ccc(CCC2(C3CCCC3)CC(O)=C(Sc3nc4cncnc4[nH]3)C(=O)O2)cc1Cl (stereo not drawn) [C(65), 6-[2-(3-chloro-4-methoxyphenyl)ethyl]-6-cyclopentyl-4-hydroxy-3-(9H-purin-8-ylthio)-5,6-dihydro-2H-pyran-2-one] | 54 nM |
| COc1ccc(CCC2(C3CCCC3)CC(O)=C(Sc3ccc4ccccc4n3)C(=O)O2)cc1Cl (stereo not drawn) [C(66), 6-[2-(3-chloro-4-methoxyphenyl)ethyl]-6-cyclopentyl-4-hydroxy-3-(quinolin-2-ylthio)-5,6-dihydro-2H-pyran-2-one] | 900 nM |
| COc1ccc(CCC2(C3CCCC3)CC(O)=C(Sc3ncc4[nH]cnc4n3)C(=O)O2)cc1Cl (stereo not drawn) [C(67), 6-[2-(3-chloro-4-methoxyphenyl)ethyl]-6-cyclopentyl-4-hydroxy-3-(7H-purin-2-ylthio)-5,6-dihydro-2H-pyran-2-one] | 50 nM |
| COc1ccc(CCC2(C3CCCC3)CC(O)=C(Sc3ncnc4ccccc34)C(=O)O2)cc1Cl (stereo not drawn) [C(68), 6-[2-(3-chloro-4-methoxyphenyl)ethyl]-6-cyclopentyl-4-hydroxy-3-(quinazolin-4-ylthio)-5,6-dihydro-2H-pyran-2-one] | 200 nM |
| Cc1cc(C)n2nc(SC3=C(O)CC(CCc4ccc(C(F)F)c(F)c4)(C4CCCC4)OC3=O)nc2n1 (stereo not drawn) [C(69), 6-Cyclopentyl-6-{2-[4-(difluoromethyl)-3-fluorophenyl]ethyl}-3-[(5,7-dimethyl[1,2,4]triazolo[1,5-a]pyrimidin-2-yl)thio]-4-hydroxy-5,6-dihydro-2H-pyran-2-one] | 130 nM |
